Like-named read-outs stand apart in the source and are kept apart here.
Tests used:
HeLa cells = test: HeLa cell viability (PrestoBlue) assay, 72 h; type: cell-based, human; settings: for GI50 FK866 with carbazole/GI50 FK866 / GI50 PTX/GI50 PTX with carbazole: ratio at the highest noncytotoxic dose of carbazole analog; for GI50 FK866 with carbazole/GI50 FK866: readout of NAMPT activation; for GI50 PTX/GI50 PTX with carbazole: synergy with PTX; for fold reduction of GI50 by addition of 12 μM Carba1: drug with 12 μM Carba1 vs drug alone
Protocol: The human HeLa cell line was tested negative for mycoplasma contamination. HeLa cells were grown in RPMI 1640 medium supplemented with penicillin/streptomycin (100 μg/ml) and 10% FBS and maintained in a humidified incubator at 37°C and 5% CO2.
Cell viability was analyzed using the colorimetric PrestoBlue assay. Cells were seeded in 96-well microplates at a density of 7500 cells per well, allowed to adhere for 24 hours, and treated for 72 hours with either DMSO or drugs at indicated concentrations. PrestoBlue (10 μl) was then added to each well, followed by a 30-min incubation. Fluorescence was measured using a FLUOstar Optima microplate reader (excitation, 544 nm; emission, 580 nm; BMG Labtech).

adult mouse DRG neurons = test: Axonal degeneration index in dissociated adult mouse DRG neurons; settings: DIV 12 neurons, 72 h; Carba1 12 μM, PTX 50 nM, Cis 10 μM, Bort 100 nM
Protocol: After 4 days in vitro (DIV), at least 30% of medium was changed, and 10 μM AraC (cytosine β-D-arabino furanoside) was added to suppress nonneuronal growth. […] Neurons were fixed with 4% paraformaldehyde (PFA), washed with PBS, permeabilized with PBS–0.01% Triton X-100 for 15 min, and blocked with PBS–10% FBS for 1 hour before being stained overnight at 4°C with neurofilament antibody. Following PBS washes, secondary antibody (goat anti-chicken Alexa Fluor 488) was applied for 2 hours at room temperature (R.T.). Following additional PBS washes, coverslips were mounted with Fluoromount-G.
Images of random fields of dissociated adult DRG neurons, immunostained with antineurofilament or anti-TUBB3 antibodies, were captured using a 20× objective lens (Olympus IX81) and a Sensicam QE monochrome camera (Cooke Corporation). Degeneration masks were generated on the basis of the method described by Gerdts et al. ([66]). Axonal degeneration was quantified by measuring the total axonal area and fragmented axonal area in the same field, using degeneration masks as shown in fig. […] Images were processed in Fiji using global autothresholding, binarization, and the particle analyzer module to detect fragments (20 to 10,000 pixels), as previously described ([17]). The degeneration index was calculated as the ratio of fragmented axonal area to total axonal area.

[1] = tested on: HeLa cells xenografted in mice; test: HeLa tumor xenograft in nude mice; type: in vivo; settings: i.v. every 2 days, PTX 8 mg/kg, Carba1 60 mg/kg alone or with PTX
Protocol: Five-week-old NMRI nude mice (Janvier Labs) were implanted with 10 × 10^6 HeLa cells (200 μl in PBS) on the right flank. On day 6, the mean tumor volume was 120 ± 4 mm^3. […] Behavior and signs of pain were monitored daily. Body weight and tumor volume were measured two to three times per week using electronic calipers, with tumor volume (in cubic millimeters) calculated as length (millimeters)/2 × width^2 (square millimeters). Tumor growth inhibition was analyzed using GraphPad Prism with one-way analysis of variance (ANOVA) and Dunn’s multiple comparisons test for treatment versus vehicle. Mice were euthanized on day 20, when the vehicle group reached ethical limits. Blood samples were collected by intracardiac puncture in EDTA-coated tubes for differential blood counts and hemograms, outsourced to IDEXX BioAnalytics. For biochemical analysis, blood was collected in heparin-lithium tubes, and plasma was isolated by centrifugation and frozen at −80°C. Plasma was analyzed using MS Scan II (Melet Schloesing) and VET16 reagent rotors to measure markers of renal and hepatic function, metabolism, and nutritional and muscular status. Differential counts, hemograms, and biochemical data were analyzed with GraphPad Prism using Kruskal-Wallis test and Dunn’s multiple comparisons test.

PTX-induced neuropathy = test: Rat model of PTX-induced peripheral neuropathy (von Frey, serum NfL, IENFD); type: in vivo
Protocol: Control animals received an equivalent volume of the vehicle (cremophor EL:ethanol, 1:1) diluted 1:4 in 0.9% NaCl.
Carba1 was injected intraperitoneally six times (50 mg/kg) on days 0, 1, 2, 4, 7, and 9, resulting in a cumulative dose of 300 mg/kg (Fig. 2F). For each injection, Carba1 was injected intraperitoneally at 50 mg/kg on days 0, 1, 2, 4, 7, and 9, for a cumulative dose of 300 mg/kg, using a stock solution (150 mg/ml; cremophor EL:ethanol, 1:1) diluted to 50 mg/ml in 0.9% NaCl. Control animals for Carba1 received the same volume of the vehicle [cremophor EL:ethanol (1:1) diluted 1:3 in 0.9% NaCl]. […] To prevent cross-exposure through feces and urine, treatment groups were randomized by cage, with each cage housing three animals.
Tactile allodynia, a common sensory disorder reported in animal models of CIPN ([56]), was assessed using an electronic von Frey test (Bioseb) ([68]). Rats were placed in plastic compartments on a wire floor and allowed to habituate for 15 min. […] The maximum force (in grams) causing withdrawal was recorded automatically. The average of two measurements, not differing by more than 10 g, was used as the nociceptive threshold ([68]). Rats were habituated to the compartments 3 days before the first injection, and the experimenter was blinded to treatment groups.
Blood samples were collected on day 15 in vials with a clot activator, left at R.T. for up to 1 hour before centrifugation at 4100 rpm at 20°C for 10 min. Serum was then collected, aliquoted, and stored at −80°C until analysis. To reduce batch effects, serum samples were randomized on assay plates. NfL concentration was measured in the serum using commercial kits (Simple Plex Ella ProteinSimple, USA; Rat NfL Kit ProteinSimple) ([27]).
Skin samples from both hind paws were fixed in 4% PFA overnight at 4°C, followed by sucrose cryoprotection (10, 20, and 30%) at 4°C overnight. After embedding in tissue freezing medium, the samples were at −80°C. Sections (20 μm) were cut using a cryostat at −17°C, washed with PBS for 5 min, and dried. The sections were blocked in PBS/0.2% Triton X-100/1%BSA for 1 hour and then incubated overnight at R.T. with anti-PGP9.5 antibody (1:400). After washing with PBS, sections were incubated with goat anti-rabbit Alexa Fluor488 secondary antibody for 2 hours, and the nuclei were stained with DAPI. Imaging was performed by acquiring 0.5 μm Z-stacks and exposure times for DAPI and fluorescein isothiocyanate set to 600 ms. Quantification followed the method described by Lauria et al. ([69]).

DRG explants = test: Mouse embryonic 3D DRG explants: axonal degeneration and myelination (MBP/TUBB3); type: cell-based; settings: 72 h; Carba1 12 μM or PTX 500 nM
Protocol: Embryonic DRG 3D explants were prepared from E13.5 mouse embryos and seeded at one explant/1.9 cm^2 on acid-treated, Matrigel-coated glass coverslips ([64], [65]). Explants were cultured at 37°C under 5% CO2 and high saturated in humidity. From DIV 0 to DIV 3, cultures were maintained in C-medium supplemented with 10% FBS, 1× GlutaMAX, D-glucose (4 g/liter), 2.5S nerve growth factor (NGF; 50 ng/ml), and 1% penicillin/streptomycin. From DIV 3 to DIV 7, neurobasal medium supplemented with 1× B27, 1× GlutaMAX, D-glucose (4 g/liter), 2.5S NGF (50 ng/ml), and 1% penicillin/streptomycin was used to promote axon development. From DIV 7 onward, differentiation medium [C-medium supplemented with 5 μM forskolin, ascorbic acid (50 μg/ml), and heparin (25 μg/ml)] was used to support glial cell maturation and myelination, with medium changes occurring every 2 days.
DRGs were fixed with 10% formalin for 20 min at R.T., washed with PBS, and permeabilized for 10 min with PBS–0.1% Triton X-100. Blocking was performed using a solution of 3% bovine serum albumin (BSA), 0.1% glycine, and 5% goat preimmune serum in PBS for 2 hours at R.T. DRGs were then washed in PBS and incubated overnight at 4°C with of anti-TUBB3 (1 μg/ml) and anti-MBP (1 μg/ml). After PBS washes, secondary antibodies (goat anti-mouse Alexa Fluor 488, 1:1000, and goat anti-rabbit Alexa Fluor 647, 1:1000) were applied for 1 hour at R.T. Explants were mounted with ProLong Gold antifade reagent with 4′,6-diamidino-2-phenylindole (DAPI).
Images of random fields of DRG explants, fixed in 4% formaldehyde and immunostained for TUBB3 and MBP, were captured with consistent acquisition times across samples, using a Zeiss AxioImager M2 microscope, equipped with a Hamamatsu Orca R2 camera. Image analysis was performed using Fiji software. The images were thresholded using the default global autothreshold method. For each field, MBP^+ segments were counted and normalized to the TUBB3^+ area.

[2] = cell viability, compound alone, read-out: GI50
[3] = Homo sapiens, HeLa cells, 72 h, PrestoBlue, drug applied alone, read-out: GI50, drug alone
[4] = rat serum, day 15, outliers removed

| SMILES | GI50 (HeLa cells; [2]) [nM] | GI50 FK866 with carbazole/GI50 FK866 (HeLa cells) | GI50 PTX/GI50 PTX with carbazole (HeLa cells) | also measured |
| --- | --- | --- | --- | --- |
| Cc1cc(-n2cccc2)c(C)c2c1[nH]c1cc(Cl)ccc12 [Compound 4] | 15000 | 0.93 | 1.8 | – |
| Cc1cc(-n2cccc2)c(C)c2c1[nH]c1ccc(O)cc12 [Compound 11] | > 25000 | 1.3 | 1.5 | – |
| Cc1cc(-n2cccc2)c(C)c2c1[nH]c1ccc(Br)cc12 [Compound 2] | 16000 | 2 | 1.6 | – |
| CC(C)C[C@H](NC(=O)[C@H](Cc1ccccc1)NC(=O)c1cnccn1)B(O)O [Bort, bortezomib, reference compound] | – | – | – | axonal fragmentation / degeneration, agent alone (adult mouse DRG neurons): induced significant axonal fragmentation; GI50 (HeLa cells; [3]): 35.9 ± 3.7 nM; GI50 (HeLa cells; Homo sapiens, HeLa cells, 72 h, with 12 μM Carba1, read-out: GI50, drug in combination with Carba1): 40 ± 3.3 nM |
| Cc1cc(-n2ccc(C=O)c2)c(C)c2c1[nH]c1ccc(Br)cc12 [Compound 14] | 1200 | 1 | 2.5 | – |
| CCOC(=O)Oc1ccc2[nH]c3c(C)cc(-n4c(C)ccc4C)c(C)c3c2c1 [Compound 15] | > 25000 | 1.1 | 1 | – |
| COc1cccc(NCC(F)Cn2c3ccc(Cl)cc3c3c(C)c(-n4cccc4)cc(C)c32)c1 (stereo not drawn) [Compound 16] | > 25000 | 0.98 | 1.2 | – |
| CC(=O)O[C@@]12CO[C@@H]1C[C@H](O)[C@@]1(C)C(=O)[C@H](O)C3=C(C)[C@@H](OC(=O)[C@H](O)[C@@H](NC(=O)OC(C)(C)C)c4ccccc4)C[C@@](O)([C@@H](OC(=O)c4ccccc4)[C@H]21)C3(C)C [DTX, docetaxel, reference compound] | – | – | – | fold reduction of GI50 by addition of 12 μM Carba1 (HeLa cells; HeLa cells, 72 h): 3.8 fold; GI50 (HeLa cells; [3]): 1.1 ± 0.2 nM |
| CCc1cccc2c1[nH]c1c(C)cc(-n3cccc3)c(C)c12 [Compound 3] | > 25000 | 1.5 | 1.5 | – |
| C/C(=C\c1csc(C)n1)[C@@H]1C[C@@H]2O[C@]2(C)CCC[C@H](C)[C@H](O)[C@@H](C)C(=O)C(C)(C)[C@@H](O)CC(=O)O1 [Epo-B, epothilone-B, reference compound] | – | – | – | fold reduction of GI50 by addition of 12 μM Carba1 (HeLa cells; HeLa cells, 72 h): 4.4 fold; GI50 (HeLa cells; [3]): 0.5 ± 0.03 nM |
| Cc1cc(-n2ccc(CO)c2)c(C)c2c1[nH]c1ccc(Cl)cc12 [Compound 8] | 1000 | 1 | 3.8 | – |
| Cc1cc(-n2ccc(CN(C)C)c2)c(C)c2c1[nH]c1ccc(Cl)cc12 [Compound 6] | 12700 | 1 | 0.8 | – |
| N.N.[Cl][Pt][Cl] [Cis, cisplatin, reference compound] | – | – | – | GI50 (HeLa cells; HeLa cells, 72 h, PrestoBlue, drug applied alone, read-out: GI50, drug alone): 167 ± 30.8 nM |
| Cc1cc(-n2c(C)ccc2C)c(C)c2c1[nH]c1ccc(Cl)cc12 [Compound 12] | 14000 | 1.09 | 0.9 | – |
| Cc1cc(-n2c(C)ccc2C)c(C)c2c1[nH]c1ccc(Br)cc12 [Compound 9] | > 25000 | 0.99 | 1 | – |
| CCNCc1ccn(-c2cc(C)c3[nH]c4ccc(Cl)cc4c3c2C)c1 [Compound 7] | 10300 | 1 | 0.77 | – |
| Cc1cc(-n2ccc(C=O)c2)c(C)c2c1[nH]c1ccc(Cl)cc12 [Compound 13] | 1000 | 1 | 4.4 | – |
| CCOC(=O)Oc1ccc2[nH]c3c(C)cc(-n4cccc4)c(C)c3c2c1 [Compound 10] | 25000 | 1.1 | 1.7 | – |
| CC(=O)O[C@H]1C(=O)[C@@]2(C)[C@H]([C@H](OC(=O)c3ccccc3)[C@]3(O)C[C@H](OC(=O)[C@H](O)[C@@H](NC(=O)c4ccccc4)c4ccccc4)C(C)=C1C3(C)C)[C@]1(OC(C)=O)CO[C@@H]1C[C@@H]2O [PTX, paclitaxel, reference compound] | – | – | – | tumor size [1]: markedly reduced tumor size; IENFD, mean (PTX-induced neuropathy; rat hind paw biopsies, day 15): 13.43 number/mm; IENFD, median (PTX-induced neuropathy; rat hind paw biopsies, day 15): 13.62 number/mm; NfL, mean (PTX-induced neuropathy; [4]): 96.00 pg/mL; NfL, median (PTX-induced neuropathy; [4]): 82.50 pg/mL; tactile allodynia (paw withdrawal threshold, electronic von Frey), agent alone (PTX-induced neuropathy; rat, i.p., PTX 5 mg/kg x4 or Carba1 50 mg/kg x6): developed a tactile allodynia; reduction of IENFD, agent alone (PTX-induced neuropathy; rat, vs controls): 30%; axonal fragmentation / degeneration, agent alone (adult mouse DRG neurons): induced robust axonal degeneration; MBP staining (axonal myelination), agent alone (DRG explants): significant reduction in MBP staining; GI50 (HeLa cells; [3]): 4.2 ± 0.4 nM |

— publication PMC12571071, “Preventing neuropathy and improving anticancer chemotherapy with a carbazole-based compound” (Science Advances, 2025)
